The record followed here is patent US20040242697A1, “Methods of reducing pests by use of iodoacetic acid, bromoacetic acid, 2-iodoacetamide, or 2-bromoacetamide” (priority 2003, published 2004).

Assay [1] relates to Fusarium oxysporum f. sp. lycopersici (isolate FP-7) spores. Put plainly: Fusarium tetrazolium (MTT) spore viability assay. The format is cell-based. The settings on record: for concentration giving elimination of viable cells: 24 hr exposure, absorbance at 570 nm; for cell viability result compared with Benlate control: tetrazolium cell viability test. As to the method: (§1) The suspension was then standardized using a Beckman spectrophotometer (430 nm), which has been calibrated using a CDB blank. […] Suspensions were incubated for 24 hr at 28° C. A 10% stock solution of MTT was then added to each aliquot. The suspensions were allowed to incubate for 4 hr, then pelleted, drained, rinsed, and treated with 95% ethanol. The color change, which correlates with spore viability, was assessed using the Beckman spectrophotometer (570 nm), calibrated with 95% ethanol. Benlate (benomyl) was used as an industry standard control. Each treatment was replicated six times and the assay for each compound was repeated. […] A mycelial plug of (cork bore size #3) Fusarium oxysporum f. sp. lycopersici (isolate FP-7) from a 7-day old culture was placed at the center of the plate and the radial growth of the fungus was measured for 7-10 days. Each treatment was replicated six times and the assay for each compound was repeated. Regression analysis was performed using Sigma Plot 2000.
(§2) The tetrazolium assay is based on a color change produced with a vital stain on living tissue, i.e. the lower the absorbance, the fewer viable cells.

In assay [2] the test system is purple nutsedge (Cyperus rotundus) tubers. Put plainly: Nutsedge greenhouse assay, soil drench on tubers in pots. The format is in vivo. The settings on record: 100 ml soil drench, tarped 7 days, shoots counted 60 days. As to the method:
Herbicide Screen: Each candidate compound was tested on seeds of smooth pigweed (Amaranthus hybridus) and barnyard grass (Echinocloa crus-galli), and on tubers of purple nutsedge (Cyperus rotundus) by exposing seeds or tubers to a specific concentration of the test compound. Seeds were surface sterilized and 20 seeds placed on sterile filter paper (Whatman #5) in a 10-cm petri plate for each of six replicates for each weed species tested. Twenty ml of compound of concentrations ranging from 0 ppm (sterile water control) to 2000 ppm was added to the petri dishes. Plates were stored at 30° C. in an dark incubator. Seed germination was monitored at 24 hr intervals for 30 days. Petri plate bioassays were repeated twice for each compound. Field collected purple nutsedge tubers were placed in 500 g of field soil with soil moisture adjusted to 5%. Five nutsedge tubers were planted in each 10-cm pot at a depth of 2.5 cm. Six replicate pots of each concentration, ranging from 0 ppm (water control) to 2000 ppm, will be treated using 100 ml as a soil drench. Pots were tarped with co-extruded black-on-white polyethylene mulch for 7 days. After tarps were removed, the number of emerged nutsedge shoots was recorded on a weekly basis for 60 days.

The test system of assay [3] is Fusarium oxysporum f. sp. lycopersici (isolate FP-7). Put plainly: Fusarium petri plate (PDA) assay, radial growth. The following applies: for fungal growth elimination compared with Benlate control: PDA-based assay. It counts as cell-based. As to the method:
as §1, §2

Assay [4] has as its system nutsedge (Cyperus esculentus and C. rotundus). The experiment in a line: Field study, weed biomass emerging through the plastic mulch. The format is in vivo. The following applies: pre-plant, tomato field, Florida.
For assay [5], the system named is native weed population (weeds in the plant hole). Put plainly: Field study, weed biomass emerging in the planting hole. The settings on record: pre-plant, tomato field, Florida. The format is in vivo.
Assay [6] relates to root knot nematode Meloidogyne sp. Put plainly: Field study, root knot nematode root galling on tomato. The format is in vivo. The following applies: 600 and 800 lb per acre, assessed at harvest; population unevenly distributed.

With `CCCCNC(=O)n1c(NC(=O)OC)nc2ccccc21` [Benlate, benomyl, reference compound], the “concentration giving elimination of viable cells” value (“concentration giving elimination” below) in assay [1] was 100 ppm.
Consider `NC(=O)CBr` [bromoacetamide, 2-bromoacetamide], for which the “concentration eliminating germination of nutsedge” value in assay [2] is at least 1000 ppm. In assay [1], the “concentration giving elimination” value is recorded as 100 ppm and the “cell viability result compared with Benlate control” value was “comparable to a Benlate control”. Moreover, the “fungal growth elimination compared with Benlate control” value in assay [3] is given as “significantly better than the Benlate control”.
Regarding `O=C(O)CBr` [bromoacetic acid], the “control of nutsedge emerging through the plastic versus methyl bromide” value in assay [4] (600 lb per acre) is recorded as “as effective as methyl bromide”. Further, in assay [4] (800 lb per acre), the “control of nutsedge emerging through the plastic (fresh and dry weight) versus methyl bromide” value was “as effective as methyl bromide”. In addition, the “control of weeds in the plant hole versus methyl bromide” value in assay [5] (600 lb per acre) was “not as effective”. The “control of weeds emerging in the plant hole (fresh and dry weight) versus methyl bromide” value in assay [5] (800 lb per acre) was “as effective as methyl bromide”. Moreover, the “root knot nematode control (root galling, scale 0-10) versus untreated check” value in assay [6] is recorded as “not statistically significantly different from the untreated check”. Also, in assay [3], the “fungal growth elimination compared with Benlate control” value was “significantly better than the Benlate control”.
Consider `NC(=O)CI` [iodoacetamide, 2-iodoacetamide], for which, in assay [1], the “concentration giving elimination” value amounted to 100 ppm and the “cell viability result compared with Benlate control” value was “comparable to a Benlate control”. In assay [3], the “fungal growth elimination compared with Benlate control” value is “significantly better than the Benlate control”.
On to `O=C(O)CI` [iodoacetic acid], for which the “fungal growth elimination compared with Benlate control” value in assay [3] is “comparable to the Benalte control”. Besides, the “concentration at which fungal growth was eliminated” value in assay [3] (compound in potato dextrose agar, radial growth measured 7-10 days) is listed as at least 500 ppm.
